From patent US9072778B2, “Treatment regimen for N-MYC, c-MYC, and L-MYC amplified and overexpressed tumors” (UNIVERSITY OF HAWAII, priority 2005, dated 2015)

Columns and labels:
Assay type in all cases: cell-based, human
[1] = test system: retinoblastoma protein Rb; assay: Western blot of Rb phosphorylation in inhibitor-treated NB cells; settings: LAN-1 and NMB-7; days 2 and 3
Protocol: To further investigate the mechanism that regulates G1 arrest in LAN-1 and NMB-7 cells, and to define the changes in associated protein responses, the cell cycle-related proteins p21^Waf1/Cip1, p27^Kip1, p53, Rb, and MYCN in NB cell lysates were studied. Cells were analyzed on days 1, 2, and 3. Equal amounts of total protein were loaded in all experiments. Proteins were scanned and the ratio of hypophosphorylated Rb (pRb) (lower band):hyperphosphorylated Rb (ppRb) (upper band) was calculated (b). MYCN bands were quantified and normalized relative to β-actin. Values are presented as percentage (%) of controls of day 1, 2 or 3. (c). The data are representative of at least three independent experiments.
The retinoblastoma protein Rb can be regulated through the action of p27^Kip1. Rb phosphorylation reduces the levels of functional Rb/E2F repressor complexes and activates E2F-responsive promoters important for moving the cell through the G1/S phase of the cell cycle. […] Rb hypophosphorylation was further confirmed with total Rb showing a visible mobility shift from a hyperphosphorylated form (upper band) to a hypophosphorylated form (lower band). […] Hypophosphorylation of Rb is a known consequence of p27^Kip1 induction, and this is in strong agreement with our findings.

NMB-7 cells = assay: Polyamine pool analysis in inhibitor-treated NMB-7 cells; settings: DFMO = 5 mM, SAM486A = 10 μM, Spd = 10 μM
Protocol: (§1) Combined inhibition of both enzymes decreased polyamine pools to various degrees, and exogenous supplementation of Spd (10 μM) to cell cultures led to a substantial increase in Spd. […] In untreated control cells, the levels of Put and Spd decreased during exponential cell growth and proliferation (day 0 to day 3), which is also consistent with a decrease in ODC and AdoMetDC enzyme activities (FIGS. 3d and 3e). Spm levels decreased in untreated LAN-1 cells and remained the same in NMB-7 cells (Table 1).
(§2) Human NB cell lines were provided by Dr. Robert Seeger (LAN-1; University of California, Los Angeles, Calif.), Dr. Nai-Kong Cheung (NMB-7; Memorial Sloan-Kettering Cancer Center, NY), and the American Type Culture Collection (SK-N-SH; ATCC, Manassas, Va.). Cells were maintained in RPMI 1640 (Biosource, Rockeville, Md.) containing 10% heat-inactivated fetal bovine serum (FBS) (Invitrogen, Carlsbad, Calif.), penicillin (100 IU/ml) and streptomycin (100 μg/ml). If cells were treated with exogenous Spd, 1 mM of aminoguanidine was included as an inhibitor of serum polyamine oxidation. […] For growth and proliferation inhibition, polyamine pool, and cell cycle studies, 10 μM Spd was added together with inhibitors, and cells were assayed on days 2 and/or 3.
(§3) Intracellular polyamines were extracted from cell pellets by a method known in the art. In brief, cells were washed and centrifuged. After sonication and centrifugation, 250 μl of supernatant, 100 μl of saturated sodium carbonate, and 300 μl of 25 mg/ml dansyl chloride (5-dimethylamino-naphthalene-1-sulfonyl chloride) (Fluka, Switzerland) were mixed and analyzed via reverse phase HPLC using a C18 reverse-phase analytical column (Waters, Milford, Mass.). The effluent from the column was monitored at 510 nm (excitation at 330 nm). Polyamine levels were determined using appropriate standards. The samples were normalized in 0.2 N sodium hydroxide and the amount of total protein per sample was measured using the Bradford assay (70). Polyamine levels are expressed as nmol per mg of total cellular protein.

LAN-1 cells = assay: Polyamine pool analysis in inhibitor-treated LAN-1 cells; settings: DFMO = 5 mM, SAM486A = 10 μM, Spd = 10 μM
Protocol: as §1, §2, §3

p27^Kip1 = assay: Western blot of p27Kip1 in inhibitor-treated NB cells; settings: LAN-1 and NMB-7; 5 mM DFMO, 10 μM SAM486A; days 2 and 3, relative to untreated control
Protocol: To further investigate the mechanism that regulates G1 arrest in LAN-1 and NMB-7 cells, and to define the changes in associated protein responses, the cell cycle-related proteins p21^Waf1/Cip1, p27^Kip1, p53, Rb, and MYCN in NB cell lysates were studied. Cells were analyzed on days 1, 2, and 3. Equal amounts of total protein were loaded in all experiments. Proteins were scanned and the ratio of hypophosphorylated Rb (pRb) (lower band):hyperphosphorylated Rb (ppRb) (upper band) was calculated (b). MYCN bands were quantified and normalized relative to β-actin. Values are presented as percentage (%) of controls of day 1, 2 or 3. (c). The data are representative of at least three independent experiments. […] To test for the presence of the cdk inhibitor protein p21^Waf1/Cip1, identical experiments were conducted, but the protein could not be detected (not shown). Low levels of p21^Waf1/Cip1 in NB cells have been previously described (McKenzie et al., (2003). Cancer Res, 63, 3840-4, which is incorporated herein by reference in its entirety). Similarly, the tumor suppressor protein p53 was not detected (not shown), which is in agreement with previous findings that cell lines LAN-1 and NMB-7 are p53 deficient. In contrast, p53 was readily expressed in identical Western blot control experiments and detected by immunofluorescence using the p53 wild type cell line SK-N-SH (not shown).

SMILES	Rb phosphorylation (Ser795, Ser807/811) [1]	Polyamine pools PUT (NMB-7 cells; NMB-7, Day 2) [NMOL/MG TOTAL PROTEIN]	Polyamine pools SPD (NMB-7 cells; NMB-7, Day 2) [NMOL/MG TOTAL PROTEIN]	Polyamine pools SPM (NMB-7 cells; NMB-7, Day 2) [NMOL/MG TOTAL PROTEIN]	Polyamine pools PUT (NMB-7 cells; NMB-7, Day 3) [NMOL/MG TOTAL PROTEIN]	Polyamine pools SPD (NMB-7 cells; NMB-7, Day 3) [NMOL/MG TOTAL PROTEIN]	Polyamine pools SPM (NMB-7 cells; NMB-7, Day 3) [NMOL/MG TOTAL PROTEIN]	Polyamine pools PUT (LAN-1 cells; LAN-1, Day 2) [NMOL/MG TOTAL PROTEIN]	Polyamine pools SPD (LAN-1 cells; LAN-1, Day 2) [NMOL/MG TOTAL PROTEIN]	Polyamine pools SPM (LAN-1 cells; LAN-1, Day 2) [NMOL/MG TOTAL PROTEIN]	Polyamine pools PUT (LAN-1 cells; LAN-1, Day 3) [NMOL/MG TOTAL PROTEIN]	Polyamine pools SPD (LAN-1 cells; LAN-1, Day 3) [NMOL/MG TOTAL PROTEIN]	Polyamine pools SPM (LAN-1 cells; LAN-1, Day 3) [NMOL/MG TOTAL PROTEIN]	p27^Kip1 protein levels (p27^Kip1)
NCCC[C@](N)(C(=O)O)C(F)F [DFMO, α-difluoromethylornithine]	strong hypophosphorylation of Rb	0.1	1.9	9.3	0.0	1.4	8.6	0.3	2.2	8.7	0.0	1.9	8.1	increased endogenous levels of cdk inhibitor protein p27^Kip1
N=C(N)c1cccc2c1CC/C2=N\N=C(N)N [SAM486A, 4-amidinoindan-1-one 2′-amidinohydrazone]	much less pronounced	69.6	5.6	3.9	259.5	5.5	3.6	48.5	5.5	4.2	43.7	5.0	3.5	did not alter p27^Kip1 levels
